Data as given in ChEMBL document CHEMBL5442175, “EUbOPEN Chemogenomics Library - PDSP Secondary Binding” (2024).
pKi: −log10 of the molar value. Counter-ions that a name gives are not always drawn.

Experiments:
[1] = biological target: Sigma non-opioid intracellular receptor 1 (Homo sapiens, UniProt Q99720); assay: (§1) PDSP Secondary Binding target: SIGMAR1 - Compounds are tested at 10 uM concentration, plate are incubated at room temperature in the dark for 90 minutes. Reaction are stopped by vacuum filtration onto 0.3% polyethyleneimine soaked filter mats using Filtermate harvester. Scintillation cocktail is then melted onto microwave-dried filters on a hot plate and the radio activity is counted in Microbia counter.
Chain of Sigma non-opioid intracellular receptor 1 (Q99720 whole entry): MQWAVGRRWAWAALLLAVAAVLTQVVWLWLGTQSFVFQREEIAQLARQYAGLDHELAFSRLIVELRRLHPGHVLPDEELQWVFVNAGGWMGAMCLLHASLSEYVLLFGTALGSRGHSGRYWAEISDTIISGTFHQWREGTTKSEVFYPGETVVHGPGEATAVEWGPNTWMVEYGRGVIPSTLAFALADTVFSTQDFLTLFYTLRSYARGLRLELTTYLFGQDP

[2] = biological target: T1, Alpha-2A adrenergic receptor (Homo sapiens, UniProt P08913); assay: as §1, with “ADRA2A” for “SIGMAR1”
T1 sequence (P08913 whole entry): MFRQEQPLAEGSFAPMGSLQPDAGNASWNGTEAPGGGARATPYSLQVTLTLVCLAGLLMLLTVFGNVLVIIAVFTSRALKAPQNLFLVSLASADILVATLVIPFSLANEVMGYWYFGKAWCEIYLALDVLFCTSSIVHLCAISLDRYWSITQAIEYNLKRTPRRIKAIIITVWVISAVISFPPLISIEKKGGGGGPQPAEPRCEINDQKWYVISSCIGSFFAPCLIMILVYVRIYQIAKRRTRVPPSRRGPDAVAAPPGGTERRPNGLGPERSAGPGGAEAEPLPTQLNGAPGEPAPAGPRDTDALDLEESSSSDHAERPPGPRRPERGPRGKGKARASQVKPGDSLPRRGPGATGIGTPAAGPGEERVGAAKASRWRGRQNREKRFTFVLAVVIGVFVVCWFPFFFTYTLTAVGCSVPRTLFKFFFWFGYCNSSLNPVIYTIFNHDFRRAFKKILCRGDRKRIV

[3] = biological target: Sigma intracellular receptor 2 (Homo sapiens, UniProt Q5BJF2); assay: as §1, with “TMEM97” for “SIGMAR1”
Chain of Sigma intracellular receptor 2 (Q5BJF2 whole entry): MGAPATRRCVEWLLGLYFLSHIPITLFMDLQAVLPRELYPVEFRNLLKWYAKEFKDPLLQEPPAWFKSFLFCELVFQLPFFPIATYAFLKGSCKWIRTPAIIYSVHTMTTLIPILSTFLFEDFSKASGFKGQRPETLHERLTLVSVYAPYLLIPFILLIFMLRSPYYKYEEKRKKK

D(3) dopamine receptor = D(3) dopamine receptor (Homo sapiens, UniProt P35462); assay: as §1, with “DRD3” for “SIGMAR1”
Chain of D(3) dopamine receptor (P35462 whole entry): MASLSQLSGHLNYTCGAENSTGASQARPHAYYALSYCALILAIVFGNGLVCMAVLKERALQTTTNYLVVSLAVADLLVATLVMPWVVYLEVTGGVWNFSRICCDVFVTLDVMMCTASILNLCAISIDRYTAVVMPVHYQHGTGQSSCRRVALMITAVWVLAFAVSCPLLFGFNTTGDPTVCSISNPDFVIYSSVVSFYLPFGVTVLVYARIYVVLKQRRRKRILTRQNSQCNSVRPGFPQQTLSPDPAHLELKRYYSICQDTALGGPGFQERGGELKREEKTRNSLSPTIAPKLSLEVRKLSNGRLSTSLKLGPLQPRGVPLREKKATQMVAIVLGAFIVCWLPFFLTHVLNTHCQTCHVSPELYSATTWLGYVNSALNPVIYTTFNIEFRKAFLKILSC

[4] = biological target: 5-hydroxytryptamine receptor 7 (Homo sapiens, UniProt P34969); assay: as §1, with “HTR7” for “SIGMAR1”
Chain of 5-hydroxytryptamine receptor 7 (P34969 whole entry): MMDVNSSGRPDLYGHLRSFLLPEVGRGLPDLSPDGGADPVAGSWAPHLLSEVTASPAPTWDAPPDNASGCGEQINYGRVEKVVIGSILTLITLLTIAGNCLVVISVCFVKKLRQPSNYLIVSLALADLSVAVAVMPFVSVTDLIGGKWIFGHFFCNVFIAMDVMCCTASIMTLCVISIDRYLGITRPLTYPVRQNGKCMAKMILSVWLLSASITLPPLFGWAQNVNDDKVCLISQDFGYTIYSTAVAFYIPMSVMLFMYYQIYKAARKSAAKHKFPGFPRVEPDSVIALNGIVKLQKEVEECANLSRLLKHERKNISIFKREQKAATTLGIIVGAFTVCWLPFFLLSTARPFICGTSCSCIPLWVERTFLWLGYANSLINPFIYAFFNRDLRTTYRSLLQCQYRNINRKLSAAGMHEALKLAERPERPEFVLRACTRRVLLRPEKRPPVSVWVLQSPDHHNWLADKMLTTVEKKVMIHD

[5] = biological target: T2, Alpha-2B adrenergic receptor (Homo sapiens, UniProt P18089); assay: as §1, with “ADRA2B” for “SIGMAR1”
T2 sequence (P18089 whole entry): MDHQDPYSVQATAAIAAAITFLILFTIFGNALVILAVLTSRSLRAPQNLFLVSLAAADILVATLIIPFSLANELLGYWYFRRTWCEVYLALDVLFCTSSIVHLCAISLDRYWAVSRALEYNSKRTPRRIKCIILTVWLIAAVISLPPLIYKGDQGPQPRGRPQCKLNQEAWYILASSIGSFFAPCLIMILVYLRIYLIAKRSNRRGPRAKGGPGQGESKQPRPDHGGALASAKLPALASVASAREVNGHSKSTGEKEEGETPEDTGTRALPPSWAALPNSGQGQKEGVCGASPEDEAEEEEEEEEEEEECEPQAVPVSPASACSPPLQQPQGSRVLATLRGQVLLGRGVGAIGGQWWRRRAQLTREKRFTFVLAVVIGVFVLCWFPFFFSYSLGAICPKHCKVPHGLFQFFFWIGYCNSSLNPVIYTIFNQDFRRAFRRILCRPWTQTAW

[6] = biological target: T3, Alpha-1B adrenergic receptor (Homo sapiens, UniProt P35368); assay: as §1, with “ADRA1B” for “SIGMAR1”
T3 sequence (P35368 whole entry): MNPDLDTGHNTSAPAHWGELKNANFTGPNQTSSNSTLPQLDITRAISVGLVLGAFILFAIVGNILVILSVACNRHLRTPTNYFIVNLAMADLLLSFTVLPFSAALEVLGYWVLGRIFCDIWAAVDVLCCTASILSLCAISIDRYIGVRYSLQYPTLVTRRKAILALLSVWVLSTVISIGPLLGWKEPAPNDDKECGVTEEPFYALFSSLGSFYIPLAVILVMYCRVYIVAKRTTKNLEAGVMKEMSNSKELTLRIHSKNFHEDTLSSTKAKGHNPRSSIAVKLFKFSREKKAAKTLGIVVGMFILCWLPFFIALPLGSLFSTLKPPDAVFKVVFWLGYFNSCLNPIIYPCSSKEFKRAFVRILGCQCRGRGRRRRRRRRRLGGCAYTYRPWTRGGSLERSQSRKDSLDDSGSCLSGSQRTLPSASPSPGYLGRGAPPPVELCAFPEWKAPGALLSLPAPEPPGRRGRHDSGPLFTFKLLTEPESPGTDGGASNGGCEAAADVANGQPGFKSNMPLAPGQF

[7] = biological target: 5-hydroxytryptamine receptor 6 (Homo sapiens, UniProt P50406); assay: as §1, with “HTR6” for “SIGMAR1”
Chain of 5-hydroxytryptamine receptor 6 (P50406 whole entry): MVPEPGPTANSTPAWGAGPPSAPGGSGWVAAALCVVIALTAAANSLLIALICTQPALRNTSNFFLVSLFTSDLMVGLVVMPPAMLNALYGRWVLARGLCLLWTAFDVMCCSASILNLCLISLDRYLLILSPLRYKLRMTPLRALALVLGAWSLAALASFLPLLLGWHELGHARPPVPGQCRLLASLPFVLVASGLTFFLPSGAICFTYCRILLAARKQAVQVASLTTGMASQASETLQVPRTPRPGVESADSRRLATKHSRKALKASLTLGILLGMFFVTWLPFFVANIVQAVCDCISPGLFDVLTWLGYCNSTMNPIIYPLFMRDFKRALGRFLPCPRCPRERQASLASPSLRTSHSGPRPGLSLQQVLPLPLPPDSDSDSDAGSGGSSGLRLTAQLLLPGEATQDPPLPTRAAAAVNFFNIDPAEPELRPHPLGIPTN

[8] = biological target: 5-hydroxytryptamine receptor 1D (Homo sapiens, UniProt P28221); assay: as §1, with “HTR1D” for “SIGMAR1”
Chain of 5-hydroxytryptamine receptor 1D (P28221 whole entry): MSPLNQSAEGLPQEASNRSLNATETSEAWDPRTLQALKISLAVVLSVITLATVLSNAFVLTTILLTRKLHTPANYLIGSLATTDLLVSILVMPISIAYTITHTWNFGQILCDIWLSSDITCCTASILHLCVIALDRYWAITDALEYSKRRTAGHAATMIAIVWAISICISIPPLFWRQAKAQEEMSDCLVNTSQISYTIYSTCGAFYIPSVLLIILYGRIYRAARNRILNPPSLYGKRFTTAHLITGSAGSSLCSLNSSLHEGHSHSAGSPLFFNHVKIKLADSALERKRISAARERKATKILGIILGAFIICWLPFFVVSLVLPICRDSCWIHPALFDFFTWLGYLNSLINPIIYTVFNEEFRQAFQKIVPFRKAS

[9] = biological target: 5-hydroxytryptamine receptor 1B (Homo sapiens, UniProt P28222); assay: as §1, with “HTR1B” for “SIGMAR1”
Chain of 5-hydroxytryptamine receptor 1B (P28222 whole entry): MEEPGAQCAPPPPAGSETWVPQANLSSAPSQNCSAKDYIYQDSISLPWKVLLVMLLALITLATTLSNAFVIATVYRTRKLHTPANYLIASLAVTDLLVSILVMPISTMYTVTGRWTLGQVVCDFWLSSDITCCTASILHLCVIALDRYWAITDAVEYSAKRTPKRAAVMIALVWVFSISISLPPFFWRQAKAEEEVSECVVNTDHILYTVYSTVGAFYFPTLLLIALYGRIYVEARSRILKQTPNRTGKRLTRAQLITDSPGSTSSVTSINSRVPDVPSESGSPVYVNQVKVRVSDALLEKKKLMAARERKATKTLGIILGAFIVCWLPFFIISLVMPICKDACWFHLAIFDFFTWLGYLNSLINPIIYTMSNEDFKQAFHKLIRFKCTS

Row | pKi [1] | pKi [2] | pKi [3] | pKi (D(3) dopamine receptor) | pKi [4] | pKi [5] | pKi [6] | pKi [7] | pKi [8] | pKi [9] | SMILES
1 | 6.16 | 5.69 | 5.88 | 5.99 | 6.13 | 6.18 | 6.07 | 5.29 |  |  | O=S1(=O)c2cccc3cccc(c23)N1CCCN1CCN(c2ccc(F)cc2)CC1 [FANANSERIN]
2 | 6.38 |  | 6.03 |  | 6.38 |  | 5.57 | 6.42 | 5.79 |  | CN1CCN(c2ccc(Nc3c4ccccc4nc4ccccc34)cc2)CC1
3 | 6.37 | 6.43 | 6.47 | 7.45 | 7.33 | 6.18 | 6.22 | 6.54 |  | 6.55 | Cc1nc2sccn2c(=O)c1CCN1CCC(=C(c2ccc(F)cc2)c2ccc(F)cc2)CC1 [RITANSERIN]
4 | 6.82 | 5.84 | 7.50 | 6.20 | 6.41 | 6.64 | 5.44 | 5.68 | 6.05 | 5.37 | CN1CCCC(n2nc(Cc3ccc(Cl)cc3)c3ccccc3c2=O)CC1 (stereo unspecified) [AZELASTINE HYDROCHLORIDE]
5 | 6.49 |  | 6.48 | 6.37 | 6.50 |  |  | 6.06 |  | 6.44 | COC(=O)C1=C(C)NC(C)=C(C(=O)OCCCN2CCC(c3ccccc3)(c3ccccc3)CC2)[C@H]1c1cccc([N+](=O)[O-])c1 [NIGULDIPINE]
6 |  | 6.67 | 7.20 | 7.98 | 7.52 | 6.72 | 7.24 | 6.51 | 7.62 | 7.37 | O=c1ccc2ccc(OCCCCN3CCN(c4cccc5sccc45)CC3)cc2[nH]1 [BREXPIPRAZOLE]
7 |  | 5.76 | 6.31 |  | 7.12 | 5.96 | 5.71 | 5.89 | 7.11 | 6.89 | CN(C)C(=O)N[C@H]1CC[C@H](CCN2CCN(c3cccc(Cl)c3Cl)CC2)CC1 [CARIPRAZINE HYDROCHLORIDE]
8 |  | < 5.00 | 7.49 | 5.90 | 6.59 | 5.71 |  |  | 5.98 | 5.70 | OCc1cc(C(O)CNCCCCCCOCCCCc2ccccc2)ccc1O (stereo unspecified) [SALMETEROL]
9 | 7.85 | 5.60 | 5.96 | 6.88 | 6.10 |  | 5.54 | 6.02 | 6.43 | 5.90 | N#Cc1ccc2[nH]cc(CCCCN3CCN(c4ccc5oc(C(N)=O)cc5c4)CC3)c2c1 [VILAZODONE HYDROCHLORIDE]
10 | 5.88 | 6.14 |  | 6.34 | 7.83 | 7.34 | 5.88 | 6.84 | 6.38 |  | Cc1ccc2c(c1)c1c(n2CCc2ccc(C)nc2)CCN(C)C1 [LATREPIRDINE]
11 | 7.49 |  |  | 6.55 | 6.25 |  |  |  | 7.16 | 5.78 | Clc1cccc(COc2cncc(N3CCNCC3)n2)c1
12 |  |  | 6.65 | 6.42 | 7.15 | 6.72 | 6.24 | 5.95 | 6.91 | 6.58 | CCc1nn(CCCN2CCN(c3cccc(Cl)c3)CC2)c(=O)n1CCOc1ccccc1 [NEFAZODONE HYDROCHLORIDE]
13 | 5.64 |  | 6.15 |  |  | 5.50 | 5.45 |  | 5.56 |  | CCc1ccc(OCc2ccccc2C(=O)Nc2ccc3nc(C)cc(N)c3c2)cc1
14 |  | 6.75 | 6.81 | 6.19 | 5.81 | 6.29 | 5.69 | 5.88 |  | 5.98 | S=C(NCCCc1c[nH]cn1)NCCCN(Cc1ccc(Cl)c(Cl)c1)c1ccc(Br)cn1
15 |  | 6.17 |  | 7.15 | 6.32 | 6.10 | 6.71 |  | 7.04 | 6.43 | C[C@H](Cc1cc2c(c(C(N)=O)c1)N(CCCO)CC2)NCCOc1ccccc1OCC(F)(F)F [SILODOSIN]
16 | 6.75 |  | 7.24 | 6.37 |  | 5.55 | 5.58 | 6.25 | 7.30 |  | CCCCCNC(=N)N/N=C/c1c[nH]c2ccc(OC)cc12 [TEGASEROD MALEATE]
17 | 5.51 | 6.36 | 6.16 |  | 5.96 | 6.18 |  |  | 7.83 | 8.93 | COc1ccc(NC(=O)c2ccc(-c3ccc(-c4noc(C)n4)cc3C)cc2)cc1OCCN(C)C
18 | 7.92 | 5.53 | 6.73 | 6.11 |  |  |  |  | 5.45 |  | COc1cc(-n2cnc3cc(-c4ccc(Cl)cc4)sc3c2=O)ccc1OCCN1CCCC1

Row | SMILES | pKi [1] | pKi [2] | pKi [3] | pKi (D(3) dopamine receptor) | pKi [4] | pKi [5] | pKi [6] | pKi [7] | pKi [8] | pKi [9]
19 | Cc1c(P(=S)(c2ccccc2)c2ccccc2)n2ccccc2[n+]1C/C=C/c1ccccc1 | 6.09 | 6.25 | 6.15 |  |  |  |  |  |  | 
20 | CN1C[C@H](C(=O)N[C@]2(C)O[C@@]3(O)[C@@H]4CCCN4C(=O)[C@H](Cc4ccccc4)N3C2=O)C[C@@H]2c3cccc4[nH]cc(c34)C[C@H]21 [DIHYDROERGOTAMINE MESYLATE] | 6.22 |  | 5.55 | 7.47 | 7.22 |  | 6.93 | 6.65 |  | 6.97
21 | Cc1nc(-c2ccc(-c3ccc(C(=O)N4CCc5cc6c(cc54)C4(CCN(C)CC4)CO6)cc3)c(C)c2)no1 [SB-224289] | 5.36 | 5.61 | 6.30 |  |  | 5.66 |  |  |  | 
